# Assay results as given in PubChem BioAssay (NCI).
#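 Protocol summary: plate cells (96-well), add compound at 5 concentrations, incubate 48 h, interpolate endpoints linearly. GI50 is the concentration that inhibits growth by half. Definition used: TGI = concentration required for complete inhibition of growth.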
# How the values were obtained:
# Assay in all cases: growth of human tumour cells (NCI), 48 h
# 786-0 renal = system: 786-0 renal
# A549 NSCLC = system: A549 NSCLC
# ACHN renal = system: ACHN renal
# BT-549 breast = system: BT-549 breast
# CAKI-1 renal = system: CAKI-1 renal
# CCRF-CEM leukemia = system: CCRF-CEM leukemia
# COLO 205 colon = system: COLO 205 colon
# DU-145 prostate = system: DU-145 prostate
# EKVX NSCLC = system: EKVX NSCLC
# HCC-2998 colon = system: HCC-2998 colon
# HCT-116 colon = system: HCT-116 colon
# HCT-15 colon = system: HCT-15 colon
# HL-60(TB) leukemia = system: HL-60(TB) leukemia
# HOP-62 NSCLC = system: HOP-62 NSCLC
# HOP-92 NSCLC = system: HOP-92 NSCLC
# HS 578T breast = system: HS 578T breast
# HT29 colon = system: HT29 colon
# IGROV1 ovarian = system: IGROV1 ovarian
# K-562 leukemia = system: K-562 leukemia
# KM12 colon = system: KM12 colon
# LOX IMVI melanoma = system: LOX IMVI melanoma
# M14 melanoma = system: M14 melanoma
# MALME-3M melanoma = system: MALME-3M melanoma
# MCF7 breast = system: MCF7 breast
# MDA-MB-231 breast = system: MDA-MB-231 breast
# MDA-MB-435 = system: MDA-MB-435
# MOLT-4 leukemia = system: MOLT-4 leukemia
# NCI-H226 lung = system: NCI-H226 lung
# NCI-H23 lung = system: NCI-H23 lung
# NCI-H460 lung = system: NCI-H460 lung
# NCI-H522 lung = system: NCI-H522 lung
# NCI/ADR-RES ovarian = system: NCI/ADR-RES ovarian
# OVCAR-3 ovarian = system: OVCAR-3 ovarian
# OVCAR-4 ovarian = system: OVCAR-4 ovarian
# OVCAR-5 ovarian = system: OVCAR-5 ovarian
# OVCAR-8 ovarian = system: OVCAR-8 ovarian
# PC-3 prostate = system: PC-3 prostate
# RPMI-8226 leukemia = system: RPMI-8226 leukemia
# RXF 393 renal = system: RXF 393 renal
# SF-268 CNS = system: SF-268 CNS
# SF-295 CNS = system: SF-295 CNS
# SF-539 CNS = system: SF-539 CNS
# SK-MEL-2 melanoma = system: SK-MEL-2 melanoma
# SK-MEL-28 melanoma = system: SK-MEL-28 melanoma
# SK-MEL-5 melanoma = system: SK-MEL-5 melanoma
# SK-OV-3 ovarian = system: SK-OV-3 ovarian
# SN12C renal = system: SN12C renal
# SNB-19 CNS = system: SNB-19 CNS
# SNB-75 CNS = system: SNB-75 CNS
# SR leukemia = system: SR leukemia
# SW-620 colon = system: SW-620 colon
# T-47D breast = system: T-47D breast
# TK-10 renal = system: TK-10 renal
# U251 CNS = system: U251 CNS
# UACC-257 melanoma = system: UACC-257 melanoma
# UACC-62 melanoma = system: UACC-62 melanoma
# UO-31 renal = system: UO-31 renal
smiles,measurement,setting,value
COc1cnc2c(c1)C(=O)c1c-2n(CCCBr)c(=O)c2cc([N+](=O)[O-])ccc12,GI50,786-0 renal,0.223 µM
same,TGI,786-0 renal,0.716 µM
same,GI50,A549 NSCLC,0.347 µM
same,TGI,A549 NSCLC,6.85 µM
same,GI50,ACHN renal,0.0878 µM
same,TGI,ACHN renal,3.14 µM
same,GI50,BT-549 breast,0.519 µM
same,TGI,BT-549 breast,9.89 µM
same,GI50,CAKI-1 renal,0.0459 µM
same,TGI,CAKI-1 renal,3.05 µM
same,GI50,CCRF-CEM leukemia,0.0575 µM
same,TGI,CCRF-CEM leukemia,17.8 µM
same,GI50,COLO 205 colon,0.259 µM
same,TGI,COLO 205 colon,2.41 µM
same,GI50,DU-145 prostate,0.2 µM
same,TGI,DU-145 prostate,9.09 µM
same,GI50,EKVX NSCLC,1.27 µM
same,TGI,EKVX NSCLC,10.7 µM
same,GI50,HCC-2998 colon,0.386 µM
same,TGI,HCC-2998 colon,10.2 µM
same,GI50,HCT-116 colon,0.0849 µM
same,TGI,HCT-116 colon,1.7 µM
same,GI50,HCT-15 colon,0.35 µM
same,TGI,HCT-15 colon,15.3 µM
same,GI50,HL-60(TB) leukemia,0.31 µM
same,TGI,HL-60(TB) leukemia,53 µM
same,GI50,HOP-62 NSCLC,0.0578 µM
same,TGI,HOP-62 NSCLC,2.6 µM
same,GI50,HOP-92 NSCLC,1.77 µM
same,TGI,HOP-92 NSCLC,13.7 µM
same,GI50,HS 578T breast,2.55 µM
same,TGI,HS 578T breast,40.1 µM
same,GI50,HT29 colon,0.202 µM
same,TGI,HT29 colon,23.1 µM
same,GI50,IGROV1 ovarian,0.163 µM
same,TGI,IGROV1 ovarian,2.35 µM
same,GI50,K-562 leukemia,0.255 µM
same,TGI,K-562 leukemia,> 100 µM
same,GI50,KM12 colon,0.375 µM
same,TGI,KM12 colon,8.77 µM
same,GI50,LOX IMVI melanoma,0.075 µM
same,TGI,LOX IMVI melanoma,0.549 µM
same,GI50,M14 melanoma,0.14 µM
same,TGI,M14 melanoma,2.12 µM
same,GI50,MALME-3M melanoma,0.352 µM
same,TGI,MALME-3M melanoma,2.02 µM
same,GI50,MCF7 breast,0.0459 µM
same,TGI,MCF7 breast,1.2 µM
same,GI50,MDA-MB-231 breast,2.58 µM
same,TGI,MDA-MB-231 breast,31.5 µM
same,GI50,MDA-MB-435,0.474 µM
same,TGI,MDA-MB-435,5.04 µM
same,GI50,MOLT-4 leukemia,0.052 µM
same,TGI,MOLT-4 leukemia,10.2 µM
same,GI50,NCI-H226 lung,0.499 µM
same,TGI,NCI-H226 lung,3.75 µM
same,GI50,NCI-H23 lung,0.218 µM
same,TGI,NCI-H23 lung,4.27 µM
same,GI50,NCI-H460 lung,0.0407 µM
same,TGI,NCI-H460 lung,0.699 µM
same,GI50,NCI-H522 lung,0.433 µM
same,TGI,NCI-H522 lung,8.46 µM
same,GI50,NCI/ADR-RES ovarian,0.187 µM
same,TGI,NCI/ADR-RES ovarian,12.4 µM
same,GI50,OVCAR-3 ovarian,0.248 µM
same,TGI,OVCAR-3 ovarian,1.05 µM
same,GI50,OVCAR-4 ovarian,0.686 µM
same,TGI,OVCAR-4 ovarian,9.17 µM
same,GI50,OVCAR-5 ovarian,1.19 µM
same,TGI,OVCAR-5 ovarian,10.2 µM
same,GI50,OVCAR-8 ovarian,0.364 µM
same,TGI,OVCAR-8 ovarian,7.21 µM
same,GI50,PC-3 prostate,0.314 µM
same,TGI,PC-3 prostate,11.7 µM
same,GI50,RPMI-8226 leukemia,0.301 µM
same,TGI,RPMI-8226 leukemia,4.7 µM
same,GI50,RXF 393 renal,0.364 µM
same,TGI,RXF 393 renal,2.43 µM
same,GI50,SF-268 CNS,0.158 µM
same,TGI,SF-268 CNS,9.3 µM
same,GI50,SF-295 CNS,0.0709 µM
same,TGI,SF-295 CNS,0.852 µM
same,GI50,SF-539 CNS,0.279 µM
same,TGI,SF-539 CNS,1.07 µM
same,GI50,SK-MEL-2 melanoma,2.04 µM
same,TGI,SK-MEL-2 melanoma,6.31 µM
same,GI50,SK-MEL-28 melanoma,1.52 µM
same,TGI,SK-MEL-28 melanoma,12 µM
same,GI50,SK-MEL-5 melanoma,0.224 µM
same,TGI,SK-MEL-5 melanoma,0.533 µM
same,GI50,SK-OV-3 ovarian,0.312 µM
same,TGI,SK-OV-3 ovarian,7.74 µM
same,GI50,SN12C renal,0.269 µM
same,TGI,SN12C renal,3.48 µM
same,GI50,SNB-19 CNS,0.282 µM
same,TGI,SNB-19 CNS,18.7 µM
same,GI50,SNB-75 CNS,0.43 µM
same,TGI,SNB-75 CNS,13.8 µM
same,GI50,SR leukemia,0.0378 µM
same,TGI,SR leukemia,> 100 µM
same,GI50,SW-620 colon,0.0607 µM
same,TGI,SW-620 colon,5.13 µM
same,GI50,T-47D breast,0.233 µM
same,TGI,T-47D breast,3.19 µM
same,GI50,TK-10 renal,2 µM
same,TGI,TK-10 renal,16.3 µM
same,GI50,U251 CNS,0.101 µM
same,TGI,U251 CNS,3.98 µM
same,GI50,UACC-257 melanoma,0.597 µM
same,TGI,UACC-257 melanoma,4.39 µM
same,GI50,UACC-62 melanoma,0.0821 µM
same,TGI,UACC-62 melanoma,1.48 µM
same,GI50,UO-31 renal,0.0566 µM
same,TGI,UO-31 renal,1.51 µM
